This is an account of results in ChEMBL document CHEMBL1147394, “Zaragozic acids D and D2: potent inhibitors of squalene synthase and of Ras farnesyl-protein transferase” (J Nat Prod, 1993).

Experiment [1] in a line: Inhibition of bovine Ras FPTase. On the set-up: species or system Bos taurus.
Experiment [2] concerns the target T1, Squalene synthase (Rattus norvegicus, UniProt Q02769).
T1 sequence (Q02769 whole entry): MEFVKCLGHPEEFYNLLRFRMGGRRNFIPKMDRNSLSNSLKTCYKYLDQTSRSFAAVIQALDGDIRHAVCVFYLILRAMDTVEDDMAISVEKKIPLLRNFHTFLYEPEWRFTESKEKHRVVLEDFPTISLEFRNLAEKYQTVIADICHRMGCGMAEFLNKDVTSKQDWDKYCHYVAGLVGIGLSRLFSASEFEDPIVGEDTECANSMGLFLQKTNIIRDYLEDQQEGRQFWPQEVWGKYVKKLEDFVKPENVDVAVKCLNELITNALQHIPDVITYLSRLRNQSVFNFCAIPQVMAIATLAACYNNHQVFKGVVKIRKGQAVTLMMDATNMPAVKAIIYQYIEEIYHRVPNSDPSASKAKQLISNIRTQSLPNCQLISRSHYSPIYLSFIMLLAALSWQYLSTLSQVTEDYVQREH
Nature of the experiment: Inhibition of rat liver squalene synthase by liqiud scintillation counting.

For `C/C=C/CCCC/C=C/CCCCC(=O)O[C@@H]1[C@@H](O)[C@@]2(CCC(C)C(O)C(C)C/C=C/c3ccccc3)O[C@H](C(=O)O)[C@@](O)(C(=O)O)[C@]1(C(=O)O)O2` (some centres undefined) [ZARAGOZIC ACID B], the results for the IC50 in experiment [1] and in experiment [2] were 1 µM and 0.0002 µM, respectively. Taken in the same sequence, the figures for `CC(=O)O[C@H](CCC[C@]12O[C@H](C(=O)O)[C@@](O)(C(=O)O)[C@](C(=O)O)(O1)[C@H](OC(=O)CC/C=C/[C@H](C)CCCc1ccccc1)[C@H]2O)[C@H](C)Cc1ccccc1` [ZARAGOZIC ACID C] were 0.15 µM and 0.0004 µM. The corresponding values for `CCCCCCCCCC(=O)O[C@@H]1[C@@H](O)[C@@]2(CCCC(OC(C)=O)C(C)C/C=C/c3ccccc3)O[C@H](C(=O)O)[C@@](O)(C(=O)O)[C@]1(C(=O)O)O2` (some centres undefined) [ZARAGOZIC ACID D2] are 0.1 µM and 0.002 µM. Taken in the same sequence, the figures for `CCCCCCCC(=O)O[C@@H]1[C@@H](O)[C@@]2(CCCC(OC(C)=O)C(C)C/C=C/c3ccccc3)O[C@H](C(=O)O)[C@@](O)(C(=O)O)[C@]1(C(=O)O)O2` (some centres undefined) [ZARAGOZIC ACID D] were 0.1 µM and 0.006 µM.

Turning to `C=C(CC[C@]12O[C@H](C(=O)O)[C@@](O)(C(=O)O)[C@](C(=O)O)(O1)[C@H](OC(=O)/C=C/[C@@H](C)C[C@@H](C)CC)[C@H]2O)[C@@H](OC(C)=O)[C@H](C)Cc1ccccc1` [ZARAGOZIC ACIDS A], it took 0.25 µM to reach half-maximal inhibition in experiment [1] (IC50).

What is called IC50 is the midpoint of a concentration-inhibition curve. Higher therefore signals weaker potency.
